Experiments:
human LXR beta = target: T1, human LXR beta (Homo sapiens, UniProt P55055); assay: Radioligand binding assay (SPA), LXR beta LBD; conditions: radioligand displacement, LXR beta-LBD on SPA beads; read-out: LXRbeta Binding IC50
T1 construct: human LXR beta (aa 155 to 460); unspecified tag ('tagged versions'); made in house; host or cells: E. coli BL21 (pLysS)
T1 sequence (P55055 155-460): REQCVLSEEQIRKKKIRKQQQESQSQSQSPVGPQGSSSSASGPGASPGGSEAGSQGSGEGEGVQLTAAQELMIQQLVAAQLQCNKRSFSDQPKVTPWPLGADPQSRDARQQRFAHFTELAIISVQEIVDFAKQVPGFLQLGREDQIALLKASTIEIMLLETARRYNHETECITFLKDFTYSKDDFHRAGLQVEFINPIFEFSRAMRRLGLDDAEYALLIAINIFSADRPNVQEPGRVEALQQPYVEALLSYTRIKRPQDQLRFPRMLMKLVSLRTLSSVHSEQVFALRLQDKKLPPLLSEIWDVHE
Method: (§1) The following tests were carried out in order to determine the activity of the compounds of the present invention. Background information on the performed assays can be found in: Nichols J S et al. “Development of a scintillation proximity assay for peroxisome proliferator-activated receptor gamma ligand binding domain”, Anal Biochem. 1998, 257: 112-119.
(§2) Mammalian expression vectors were constructed to express full-length human LXR alpha and LXR beta. Bacterial expression vectors were constructed to produce tagged versions of the ligand binding domains (LBD) of human LXR alpha (aa 164 to 447) and human LXR beta (aa 155 to 460). To accomplish this, the portions of the sequences encoding the LBDs were amplified from the full-length clones by PCR and then subcloned into the plasmid vectors. Final clones were verified by DNA sequence analysis (Willy et al., Genes Dev. 1995, 9:1033-45; Song et al., Proc Natl Acad Sci USA. 1994, 91:10809-13).
(§3) Induction, expression, and purification of LBD proteins were performed in E. coli strain BL21 (pLysS) cells by standard methods (Ref: Current Protocols in Molecular Biology, Wiley Press, edited by Ausubel et al).
(§4) Radioligand Binding Assay
(§5) LXR alpha and LXR beta receptor binding were assayed in buffer consisting of 50 mM HEPES, pH 7.4, 10 mM NaCl, 5 mM MgCl2. For each 96-well reaction, 500 ng of LXRα-LBD or 700 ng of LXR beta-LBD proteins were bound to 80 μg or 40 μg SPA beads respectively, in a final volume of 50 μl by shaking. The resulting slurry was incubated for 1 h at RT and centrifuged for 2 min at 1300×g. The supernatant containing unbound protein was removed, and the semi-dry pellet containing the receptor-coated beads was re-suspended in 50 μl of buffer. Radioligand (eg. 100,000 dpm of (N-(2,2,2-trifluoroethyl)-N-[4-(2,2,2-trifluoro-1-hydroxy-1-trifluoromethylethyl)-phenyl]-benzenesulfonamide)) was added, and the reaction incubated at RT for 1 h in the presence of test compounds, and then scintillation proximity counting was performed. All binding assays were performed in 96-well plates and the amount of bound ligand was measured on a Packard TopCount using OptiPlates (Packard). Dose response curves were measured within a range of concentration from 10^−10 M to 10^−4 M.

human LXR alpha = target: T2, human LXR alpha (Homo sapiens, UniProt Q13133); assay: Radioligand binding assay (SPA), LXR alpha LBD; conditions: radioligand displacement, LXRα-LBD on SPA beads; read-out: LXRalpha Binding IC50
T2 construct: human LXR alpha (aa 164 to 447); unspecified tag ('tagged versions'); made in house; host or cells: E. coli BL21 (pLysS)
T2 sequence (Q13133 164-447): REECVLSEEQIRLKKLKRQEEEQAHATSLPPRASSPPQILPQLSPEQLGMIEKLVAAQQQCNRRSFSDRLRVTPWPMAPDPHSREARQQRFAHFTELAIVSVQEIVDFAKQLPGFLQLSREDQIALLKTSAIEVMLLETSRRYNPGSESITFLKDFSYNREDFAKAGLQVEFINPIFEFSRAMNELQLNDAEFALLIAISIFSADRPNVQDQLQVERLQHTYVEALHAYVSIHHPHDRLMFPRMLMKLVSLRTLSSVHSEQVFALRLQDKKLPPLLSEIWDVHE
Method: as §1, §2, §3, §4, §5

Row | Compound | IC50 (human LXR beta) [µM] | IC50 (human LXR alpha) [µM]
1 | CC(C)(C)OC(=O)N1CC[C@@H](c2ccccc2)[C@H](c2cccc(-c3cccc(S(C)(=O)=O)c3)c2)C1 (relative stereo) [Example 38, trans-3-(3′-Methanesulfonyl-biphenyl-3-yl)-4-phenyl-piperidine-1-carboxylic acid tert-butyl ester] | 0.025 | 0.16
2 | CC(C)N1C(=O)N(S(=O)(=O)c2ccccc2F)CC1c1cccc(-c2cccc(S(C)(=O)=O)c2)c1 (stereo not drawn) [Example 14, 1-(2-Fluoro-benzenesulfonyl)-3-isopropyl-4-(3′-methanesulfonyl-biphenyl-3-yl)-imidazolidin-2-one] | 0.006 | 0.01
3 | CC(C)N1C(=O)N(S(=O)(=O)c2ccccc2)CC1c1cccc(-c2cccc(S(C)(=O)=O)c2)c1 (stereo not drawn) [Example 12, 1-Benzenesulfonyl-3-isopropyl-4-(3′-methanesulfonyl-biphenyl-3-yl)-imidazolidin-2-one] | 0.0243 | 0.147
4 | Cc1oncc1S(=O)(=O)N1CC(c2cccc(-c3cccc(S(C)(=O)=O)c3)c2)N(C(C)C)C1=O (stereo not drawn) [Example 15, 3-Isopropyl-4-(3′-methanesulfonyl-biphenyl-3-yl)-1-(5-methyl-isoxazole-4-sulfonyl)-imidazolidin-2-one] | 0.16 | 2.58
5 | CC(C)N1C(=O)N(S(=O)(=O)c2ccccc2)CC1c1cccc(-c2cc(C#N)ccc2Cl)c1 (stereo not drawn) [Example 28, 3′-(1-Benzenesulfonyl-3-isopropyl-2-oxo-imidazolidin-4-yl)-6-chloro-biphenyl-3-carbonitrile] | 0.505 | 2.96
6 | CC(C)N1C(=O)N(S(=O)(=O)c2ccccc2)CC1c1cccc(-c2cccc(S(=O)(=O)NC(C)(C)C)c2)c1 (stereo not drawn) [Example 29, 3′-(1-Benzenesulfonyl-3-isopropyl-2-oxo-imidazolidin-4-yl)-biphenyl-3-sulfonic acid tert-butylamide] | 0.41 | 2.25
7 | CC(C)N1C(=O)N(S(=O)(=O)C(C)C)CC1c1cccc(-c2cccc(S(C)(=O)=O)c2)c1 (stereo not drawn) [Example 13, 3-Isopropyl-4-(3′-methanesulfonyl-biphenyl-3-yl)-1-(propane-2-sulfonyl)-imidazolidin-2-one] | 0.036 | 2.49
8 | CCS(=O)(=O)N1CC(c2cccc(-c3cccc(S(C)(=O)=O)c3)c2)N(C(C)C)C1=O (stereo not drawn) [Example 18, 1-Ethanesulfonyl-3-isopropyl-4-(3′-methanesulfonyl-biphenyl-3-yl)-imidazolidin-2-one] | 0.106 | 5.01
9 | Cc1ccccc1N1CCN(C(=O)OC(C)(C)C)CC1c1cccc(-c2cccc(S(C)(=O)=O)c2)c1 (stereo not drawn) [Example 48, 3-(3′-Methanesulfonyl-biphenyl-3-yl)-4-o-tolyl-piperazine-1-carboxylic acid tert-butyl ester] | 0.355 | 5.53
10 | CS(=O)(=O)c1cccc(-c2ccc(C3CN(S(=O)(=O)c4ccccc4)C(=O)N3c3ccccc3)cc2)c1 (stereo not drawn) [Example 4, 1-Benzenesulfonyl-4-(3′-methanesulfonyl-biphenyl-4-yl)-3-phenyl-imidazolidin-2-one] | 0.28 | 1.68
11 | Cc1ccc(C)c(-c2cccc(C3CN(S(=O)(=O)c4ccccc4)C(=O)N3C(C)C)c2)c1 (stereo not drawn) [Example 31, 1-Benzenesulfonyl-4-(2′,5′-dimethyl-biphenyl-3-yl)-3-isopropyl-imidazolidin-2-one] | 0.165 | 0.815
12 | CC(C)N1C(=O)N(S(=O)(=O)c2ccccc2)CC1c1cccc(-c2cccc([N+](=O)[O-])c2)c1 (stereo not drawn) [Example 21, 1-Benzenesulfonyl-3-isopropyl-4-(3′-nitro-biphenyl-3-yl)-imidazolidin-2-one] | 0.155 | 2.91
13 | O=C(O)c1cccc(-c2cccc(C3CN(S(=O)(=O)c4ccccc4)C(=O)N3c3ccccc3)c2)c1 (stereo not drawn) [Example 6, 3′-(1-Benzenesulfonyl-2-oxo-3-phenyl-imidazolidin-4-yl)-biphenyl-3-carboxylic acid] | 9.03 | 5.72
14 | O=C(O)c1ccc(-c2ccc(C3CN(S(=O)(=O)c4ccccc4)C(=O)N3c3ccccc3)cc2)cc1 (stereo not drawn) [Example 1, 4′-(1-Benzenesulfonyl-2-oxo-3-phenyl-imidazolidin-4-yl)-biphenyl-4-carboxylic acid] | 2.88 | 11.6
15 | CC(C)(C)OC(=O)N1CC[C@H](c2ccccc2)[C@H](c2cccc(-c3cccc(S(C)(=O)=O)c3)c2)C1 (relative stereo) [Example 42, cis-3-(3′-Methanesulfonyl-biphenyl-3-yl)-4-phenyl-piperidine-1-carboxylic acid tert-butyl ester] | 0.61 | 2.83
16 | CC(C)N1C(=O)N(S(C)(=O)=O)CC1c1cccc(-c2cccc(S(C)(=O)=O)c2)c1 (stereo not drawn) [Example 17, 3-Isopropyl-1-methanesulfonyl-4-(3′-methanesulfonyl-biphenyl-3-yl)-imidazolidin-2-one] | 2.73 | 52.8
17 | CC(C)(C)OC(=O)N1CC[C@@H](c2ccccc2)[C@H](c2cccc(-c3cncc(S(C)(=O)=O)c3)c2)C1 (relative stereo) [Example 43, trans-3-[3-(5-Methanesulfonyl-pyridin-3-yl)-phenyl]-4-phenyl-piperidine-1-carboxylic acid tert-butyl ester] | 0.755 | 3.98
18 | CS(=O)(=O)c1cccc(-c2cccc([C@@H]3CN(S(=O)(=O)c4ccccc4)CC[C@H]3c3ccccc3)c2)c1 (racemic) [Example 36, trans-1-Benzenesulfonyl-3-(3′-methanesulfonyl-biphenyl-3-yl)-4-phenyl-piperidine] | 0.025 | 0.07
19 | Cc1ccc(C)c(-c2cccc([C@@H]3CN(C(=O)OC(C)(C)C)CC[C@@H]3c3ccccc3)c2)c1 (relative stereo) [Example 41, cis-3-(2′,5′-Dimethyl-biphenyl-3-yl)-4-phenyl-piperidine-1-carboxylic acid tert-butyl ester] | 36.8 | 27.4
20 | CCOc1ccc(F)c(-c2cccc(C3CN(S(=O)(=O)c4ccccc4)C(=O)N3C(C)C)c2)c1 (stereo not drawn) [Example 30, 1-Benzenesulfonyl-4-(5′-ethoxy-2′-fluoro-biphenyl-3-yl)-3-isopropyl-imidazolidin-2-one] | 0.0104 | 0.095
21 | CS(=O)(=O)c1cccc(-c2cccc([C@@H]3CN(S(=O)(=O)c4ccccc4)CC[C@@H]3c3ccccc3)c2)c1 (relative stereo) [Example 39, cis-1-Benzenesulfonyl-3-(3′-methanesulfonyl-biphenyl-3-yl)-4-phenyl-piperidine] | 2.75 | 3.03
22 | CS(=O)(=O)c1cccc(-c2cccc(C3CN(S(=O)(=O)c4ccccc4)CCN3c3ccccc3)c2)c1 (stereo not drawn) [Example 34, 4-Benzenesulfonyl-2-(3′-methanesulfonyl-biphenyl-3-yl)-1-phenyl-piperazine] | 0.002 | 0.056
23 | NCc1cccc(-c2cccc([C@@H]3CN(S(=O)(=O)c4ccccc4)CC[C@H]3c3ccccc3)c2)c1 (relative stereo) [Example 37] | 2.09 | 2.54
24 | O=C(O)CCc1ccc(-c2cccc(C3CN(S(=O)(=O)c4ccccc4)C(=O)N3c3ccccc3)c2)cc1 (stereo not drawn) [Example 10, 3-[3′-(1-Benzenesulfonyl-2-oxo-3-phenyl-imidazolidin-4-yl)-biphenyl-4-yl]-propionic acid] | 2.69 | 3.35

Reference: US8063088B2 (Hoffmann-La Roche Inc., priority 2008, dated 2011)
